Assay results published in paper PMC8333062, “Chemical tools for epichaperome-mediated interactome dysfunctions of the central nervous system” (Nature Communications, 2021).
Read-outs that look alike come from different tables or passages of the source.

How the values were obtained:
Test in all cases: scanEDGE off-target screen
Assay type in all cases: binding
97 kinases [1] = biological target: T1, 97 kinases (Homo sapiens, UniProt O00444); conditions: read-out: %Ctrl PLK4
T1 construct: purchased Ambit Biosciences (scanEDGE / KINOMEscan) scanEDGE 97 kinase panel; host or cells: T7 phage in E. coli BL21-derived host; remaining kinases in HEK-293 cells

97 kinases [2] = biological target: T2, 97 kinases (Homo sapiens, UniProt O14757); conditions: read-out: %Ctrl CHEK1
T2 construct: purchased Ambit Biosciences (scanEDGE / KINOMEscan) scanEDGE 97 kinase panel; host or cells: T7 phage in E. coli BL21-derived host; remaining kinases in HEK-293 cells
T2 sequence (O14757 whole entry): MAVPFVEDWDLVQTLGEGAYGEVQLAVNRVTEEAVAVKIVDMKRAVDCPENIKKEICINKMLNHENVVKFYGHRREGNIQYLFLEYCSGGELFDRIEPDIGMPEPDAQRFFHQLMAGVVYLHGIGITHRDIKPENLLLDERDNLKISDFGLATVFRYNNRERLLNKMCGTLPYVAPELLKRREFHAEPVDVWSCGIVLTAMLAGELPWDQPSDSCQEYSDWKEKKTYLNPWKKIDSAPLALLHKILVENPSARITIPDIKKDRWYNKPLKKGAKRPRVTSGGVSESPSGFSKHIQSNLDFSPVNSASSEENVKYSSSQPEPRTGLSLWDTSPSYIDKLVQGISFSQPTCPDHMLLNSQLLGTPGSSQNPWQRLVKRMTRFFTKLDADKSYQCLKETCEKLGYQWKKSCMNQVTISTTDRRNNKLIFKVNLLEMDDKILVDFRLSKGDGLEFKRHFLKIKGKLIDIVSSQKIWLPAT

97 kinases [3] = biological target: T3, 97 kinases (Homo sapiens, UniProt O14965); conditions: read-out: %Ctrl AURKA
T3 construct: purchased Ambit Biosciences (scanEDGE / KINOMEscan) scanEDGE 97 kinase panel; host or cells: T7 phage in E. coli BL21-derived host; remaining kinases in HEK-293 cells
T3 sequence (O14965 whole entry): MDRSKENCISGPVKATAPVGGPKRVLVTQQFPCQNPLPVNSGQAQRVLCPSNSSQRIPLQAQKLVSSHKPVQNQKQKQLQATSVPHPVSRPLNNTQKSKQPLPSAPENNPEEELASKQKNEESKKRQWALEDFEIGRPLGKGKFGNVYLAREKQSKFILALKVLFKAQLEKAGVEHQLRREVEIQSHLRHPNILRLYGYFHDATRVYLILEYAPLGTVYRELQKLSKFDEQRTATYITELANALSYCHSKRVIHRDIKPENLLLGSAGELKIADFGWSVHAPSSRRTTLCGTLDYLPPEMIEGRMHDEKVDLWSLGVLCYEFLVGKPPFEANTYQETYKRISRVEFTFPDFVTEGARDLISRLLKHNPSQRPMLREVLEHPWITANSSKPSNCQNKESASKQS

97 kinases [4] = biological target: T4, 97 kinases (Homo sapiens, UniProt O15530); conditions: read-out: %Ctrl PDPK1
T4 construct: purchased Ambit Biosciences (scanEDGE / KINOMEscan) scanEDGE 97 kinase panel; host or cells: T7 phage in E. coli BL21-derived host; remaining kinases in HEK-293 cells
T4 sequence (O15530 whole entry): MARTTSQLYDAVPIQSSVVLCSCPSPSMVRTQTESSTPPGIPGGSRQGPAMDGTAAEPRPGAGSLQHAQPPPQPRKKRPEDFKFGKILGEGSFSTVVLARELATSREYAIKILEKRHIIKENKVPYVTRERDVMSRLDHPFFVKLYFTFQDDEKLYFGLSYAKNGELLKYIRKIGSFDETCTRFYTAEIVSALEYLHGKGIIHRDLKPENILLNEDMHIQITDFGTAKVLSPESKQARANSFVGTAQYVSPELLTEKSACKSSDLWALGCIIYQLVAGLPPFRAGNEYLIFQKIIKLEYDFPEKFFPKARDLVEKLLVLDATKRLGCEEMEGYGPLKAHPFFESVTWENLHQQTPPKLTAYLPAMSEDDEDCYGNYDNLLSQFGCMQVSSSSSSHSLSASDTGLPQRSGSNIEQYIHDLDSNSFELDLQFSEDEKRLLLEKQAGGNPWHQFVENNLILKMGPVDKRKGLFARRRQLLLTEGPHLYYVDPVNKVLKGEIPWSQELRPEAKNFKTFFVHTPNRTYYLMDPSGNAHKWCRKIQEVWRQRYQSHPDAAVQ

97 kinases [5] = biological target: T5, 97 kinases (Homo sapiens, UniProt O96013); conditions: read-out: %Ctrl PAK4
T5 construct: purchased Ambit Biosciences (scanEDGE / KINOMEscan) scanEDGE 97 kinase panel; host or cells: T7 phage in E. coli BL21-derived host; remaining kinases in HEK-293 cells

97 kinases [6] = biological target: T6, 97 kinases (Homo sapiens, UniProt P00519)
T6 construct: purchased Ambit Biosciences (scanEDGE / KINOMEscan) scanEDGE 97 kinase panel; host or cells: T7 phage in E. coli BL21-derived host; remaining kinases in HEK-293 cells
T6 sequence (P00519 whole entry): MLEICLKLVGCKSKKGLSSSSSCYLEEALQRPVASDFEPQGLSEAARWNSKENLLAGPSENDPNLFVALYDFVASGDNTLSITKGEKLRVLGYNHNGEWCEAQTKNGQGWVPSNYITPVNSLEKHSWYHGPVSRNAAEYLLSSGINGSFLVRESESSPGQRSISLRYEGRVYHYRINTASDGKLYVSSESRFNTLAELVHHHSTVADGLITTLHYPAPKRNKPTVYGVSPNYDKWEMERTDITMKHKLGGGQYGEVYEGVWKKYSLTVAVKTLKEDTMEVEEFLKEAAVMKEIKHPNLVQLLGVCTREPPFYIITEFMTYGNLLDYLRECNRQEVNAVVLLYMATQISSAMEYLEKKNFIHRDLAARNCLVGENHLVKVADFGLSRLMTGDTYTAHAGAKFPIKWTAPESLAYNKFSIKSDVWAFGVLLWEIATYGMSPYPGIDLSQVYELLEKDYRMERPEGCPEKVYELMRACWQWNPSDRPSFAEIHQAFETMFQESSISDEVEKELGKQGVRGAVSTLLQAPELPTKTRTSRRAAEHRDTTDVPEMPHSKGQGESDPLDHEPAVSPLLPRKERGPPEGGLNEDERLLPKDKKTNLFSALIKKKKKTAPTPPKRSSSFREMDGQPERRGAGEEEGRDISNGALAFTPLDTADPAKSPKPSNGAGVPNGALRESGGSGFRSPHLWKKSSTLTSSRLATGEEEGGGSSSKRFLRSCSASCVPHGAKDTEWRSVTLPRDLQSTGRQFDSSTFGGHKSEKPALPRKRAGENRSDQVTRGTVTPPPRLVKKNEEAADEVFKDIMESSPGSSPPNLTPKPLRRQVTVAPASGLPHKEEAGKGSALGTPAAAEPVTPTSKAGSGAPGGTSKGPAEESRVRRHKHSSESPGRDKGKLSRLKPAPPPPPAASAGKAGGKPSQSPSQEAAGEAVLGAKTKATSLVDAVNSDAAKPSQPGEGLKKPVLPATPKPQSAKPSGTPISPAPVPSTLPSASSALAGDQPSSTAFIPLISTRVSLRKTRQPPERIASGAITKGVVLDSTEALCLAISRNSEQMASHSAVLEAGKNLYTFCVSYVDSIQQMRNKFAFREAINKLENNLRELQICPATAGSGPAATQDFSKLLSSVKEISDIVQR

97 kinases [7] = biological target: T7, 97 kinases (Homo sapiens, UniProt P00519, E255K); conditions: read-out: %Ctrl ABL1(E255K)-phosphorylated
T7 construct: purchased Ambit Biosciences (scanEDGE / KINOMEscan) scanEDGE 97 kinase panel; host or cells: T7 phage in E. coli BL21-derived host; remaining kinases in HEK-293 cells
T7 sequence (P00519 whole entry E255K): as the sequence (P00519 whole entry) above, with E255K counted along it

97 kinases [8] = biological target: T8, 97 kinases (Homo sapiens, UniProt P04629); conditions: read-out: %Ctrl TRKA
T8 construct: purchased Ambit Biosciences (scanEDGE / KINOMEscan) scanEDGE 97 kinase panel; host or cells: T7 phage in E. coli BL21-derived host; remaining kinases in HEK-293 cells

97 kinases [9] = biological target: T9, 97 kinases (Homo sapiens, UniProt P08581); conditions: read-out: %Ctrl MET
T9 construct: purchased Ambit Biosciences (scanEDGE / KINOMEscan) scanEDGE 97 kinase panel; host or cells: T7 phage in E. coli BL21-derived host; remaining kinases in HEK-293 cells

97 kinases [10] = biological target: T10, 97 kinases (Homo sapiens, UniProt P10721, D816V); conditions: read-out: %Ctrl KIT(D816V)
T10 construct: purchased Ambit Biosciences (scanEDGE / KINOMEscan) scanEDGE 97 kinase panel; host or cells: T7 phage in E. coli BL21-derived host; remaining kinases in HEK-293 cells

97 kinases [11] = biological target: T11, 97 kinases (Homo sapiens, UniProt P21802); conditions: read-out: %Ctrl FGFR2
T11 construct: purchased Ambit Biosciences (scanEDGE / KINOMEscan) scanEDGE 97 kinase panel; host or cells: T7 phage in E. coli BL21-derived host; remaining kinases in HEK-293 cells

97 kinases [12] = biological target: T12, 97 kinases (Homo sapiens, UniProt P24941); conditions: read-out: %Ctrl CDK2
T12 construct: purchased Ambit Biosciences (scanEDGE / KINOMEscan) scanEDGE 97 kinase panel; host or cells: T7 phage in E. coli BL21-derived host; remaining kinases in HEK-293 cells

97 kinases [13] = biological target: T13, 97 kinases (Homo sapiens, UniProt P27361); conditions: read-out: %Ctrl ERK1
T13 construct: purchased Ambit Biosciences (scanEDGE / KINOMEscan) scanEDGE 97 kinase panel; host or cells: T7 phage in E. coli BL21-derived host; remaining kinases in HEK-293 cells

97 kinases [14] = biological target: T14, 97 kinases (Homo sapiens, UniProt P29597); conditions: read-out: %Ctrl TYK2(JH1domain-catalytic)
T14 construct: purchased Ambit Biosciences (scanEDGE / KINOMEscan) scanEDGE 97 kinase panel; host or cells: T7 phage in E. coli BL21-derived host; remaining kinases in HEK-293 cells

97 kinases [15] = biological target: T15, 97 kinases (Homo sapiens, UniProt P30530); conditions: read-out: %Ctrl AXL
T15 construct: purchased Ambit Biosciences (scanEDGE / KINOMEscan) scanEDGE 97 kinase panel; host or cells: T7 phage in E. coli BL21-derived host; remaining kinases in HEK-293 cells

97 kinases [16] = biological target: T16, 97 kinases (Homo sapiens, UniProt P31749); conditions: read-out: %Ctrl AKT1
T16 construct: purchased Ambit Biosciences (scanEDGE / KINOMEscan) scanEDGE 97 kinase panel; host or cells: T7 phage in E. coli BL21-derived host; remaining kinases in HEK-293 cells
T16 sequence (P31749 whole entry): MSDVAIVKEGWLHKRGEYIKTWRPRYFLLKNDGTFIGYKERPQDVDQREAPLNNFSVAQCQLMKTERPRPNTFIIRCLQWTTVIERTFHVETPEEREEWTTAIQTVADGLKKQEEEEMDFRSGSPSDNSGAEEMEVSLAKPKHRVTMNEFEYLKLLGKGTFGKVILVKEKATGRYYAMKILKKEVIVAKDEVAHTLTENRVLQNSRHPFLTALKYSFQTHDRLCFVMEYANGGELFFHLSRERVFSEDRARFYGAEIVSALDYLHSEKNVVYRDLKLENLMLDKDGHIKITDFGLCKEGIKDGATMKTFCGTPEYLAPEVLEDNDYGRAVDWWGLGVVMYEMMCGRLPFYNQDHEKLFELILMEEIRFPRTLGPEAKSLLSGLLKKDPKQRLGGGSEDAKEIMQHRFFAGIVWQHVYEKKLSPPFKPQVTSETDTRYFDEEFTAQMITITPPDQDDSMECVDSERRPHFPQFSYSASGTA

97 kinases [17] = biological target: T17, 97 kinases (Homo sapiens, UniProt P36507); conditions: read-out: %Ctrl MEK2
T17 construct: purchased Ambit Biosciences (scanEDGE / KINOMEscan) scanEDGE 97 kinase panel; host or cells: T7 phage in E. coli BL21-derived host; remaining kinases in HEK-293 cells
T17 sequence (P36507 whole entry): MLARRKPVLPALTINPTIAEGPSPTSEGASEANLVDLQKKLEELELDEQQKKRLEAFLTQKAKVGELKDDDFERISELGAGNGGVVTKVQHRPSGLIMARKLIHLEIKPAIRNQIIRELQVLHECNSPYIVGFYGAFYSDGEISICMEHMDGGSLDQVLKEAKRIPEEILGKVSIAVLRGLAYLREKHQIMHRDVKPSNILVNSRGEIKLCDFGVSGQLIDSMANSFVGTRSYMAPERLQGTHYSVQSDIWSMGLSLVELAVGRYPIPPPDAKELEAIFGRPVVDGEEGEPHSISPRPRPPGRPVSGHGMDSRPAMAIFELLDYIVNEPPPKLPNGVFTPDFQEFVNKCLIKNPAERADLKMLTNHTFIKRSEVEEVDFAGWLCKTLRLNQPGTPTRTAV

97 kinases [18] = biological target: T18, 97 kinases (Homo sapiens, UniProt P36897); conditions: read-out: %Ctrl TGFBR1
T18 construct: purchased Ambit Biosciences (scanEDGE / KINOMEscan) scanEDGE 97 kinase panel; host or cells: T7 phage in E. coli BL21-derived host; remaining kinases in HEK-293 cells
T18 sequence (P36897 34-503): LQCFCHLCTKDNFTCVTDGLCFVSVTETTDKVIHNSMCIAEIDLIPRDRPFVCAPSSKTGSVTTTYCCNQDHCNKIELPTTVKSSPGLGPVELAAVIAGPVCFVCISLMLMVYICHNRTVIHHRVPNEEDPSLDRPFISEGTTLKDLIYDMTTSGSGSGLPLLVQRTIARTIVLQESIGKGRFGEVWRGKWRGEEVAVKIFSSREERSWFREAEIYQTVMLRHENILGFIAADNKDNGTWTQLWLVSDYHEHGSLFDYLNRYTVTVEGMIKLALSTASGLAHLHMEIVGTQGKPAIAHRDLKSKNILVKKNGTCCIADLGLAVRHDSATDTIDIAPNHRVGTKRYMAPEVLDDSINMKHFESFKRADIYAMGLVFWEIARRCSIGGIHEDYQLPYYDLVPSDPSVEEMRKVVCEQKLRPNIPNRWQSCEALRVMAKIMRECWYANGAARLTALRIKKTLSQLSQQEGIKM

97 kinases [19] = biological target: T19, 97 kinases (Homo sapiens, UniProt P48730); conditions: read-out: %Ctrl CSNK1D
T19 construct: purchased Ambit Biosciences (scanEDGE / KINOMEscan) scanEDGE 97 kinase panel; host or cells: T7 phage in E. coli BL21-derived host; remaining kinases in HEK-293 cells

97 kinases [20] = biological target: T20, 97 kinases (Homo sapiens, UniProt P49841); conditions: read-out: %Ctrl GSK3B
T20 construct: purchased Ambit Biosciences (scanEDGE / KINOMEscan) scanEDGE 97 kinase panel; host or cells: T7 phage in E. coli BL21-derived host; remaining kinases in HEK-293 cells

97 kinases [21] = biological target: T21, 97 kinases (Homo sapiens, UniProt P50750); conditions: read-out: %Ctrl CDK9
T21 construct: purchased Ambit Biosciences (scanEDGE / KINOMEscan) scanEDGE 97 kinase panel; host or cells: T7 phage in E. coli BL21-derived host; remaining kinases in HEK-293 cells

97 kinases [22] = biological target: T22, 97 kinases (Homo sapiens, UniProt P51812); conditions: read-out: %Ctrl RSK2(Kin.Dom.1-N-terminal)
T22 construct: purchased Ambit Biosciences (scanEDGE / KINOMEscan) scanEDGE 97 kinase panel; host or cells: T7 phage in E. coli BL21-derived host; remaining kinases in HEK-293 cells

97 kinases [23] = biological target: T23, 97 kinases (Homo sapiens, UniProt P53779); conditions: read-out: %Ctrl JNK3
T23 construct: purchased Ambit Biosciences (scanEDGE / KINOMEscan) scanEDGE 97 kinase panel; host or cells: T7 phage in E. coli BL21-derived host; remaining kinases in HEK-293 cells

97 kinases [24] = biological target: T24, 97 kinases (Homo sapiens, UniProt Q00526); conditions: read-out: %Ctrl CDK3
T24 construct: purchased Ambit Biosciences (scanEDGE / KINOMEscan) scanEDGE 97 kinase panel; host or cells: T7 phage in E. coli BL21-derived host; remaining kinases in HEK-293 cells
T24 sequence (Q00526 whole entry): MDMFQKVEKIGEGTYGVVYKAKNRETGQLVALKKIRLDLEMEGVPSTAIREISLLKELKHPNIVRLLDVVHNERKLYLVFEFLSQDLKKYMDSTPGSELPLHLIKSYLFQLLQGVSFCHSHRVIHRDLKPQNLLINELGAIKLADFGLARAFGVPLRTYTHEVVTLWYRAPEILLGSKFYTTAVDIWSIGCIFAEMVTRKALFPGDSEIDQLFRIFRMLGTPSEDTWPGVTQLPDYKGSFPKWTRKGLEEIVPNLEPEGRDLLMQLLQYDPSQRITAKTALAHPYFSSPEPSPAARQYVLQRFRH

97 kinases [25] = biological target: T25, 97 kinases (Homo sapiens, UniProt Q00536); conditions: read-out: %Ctrl PCTK1
T25 construct: purchased Ambit Biosciences (scanEDGE / KINOMEscan) scanEDGE 97 kinase panel; host or cells: T7 phage in E. coli BL21-derived host; remaining kinases in HEK-293 cells

97 kinases [26] = biological target: T26, 97 kinases (Homo sapiens, UniProt Q02156); conditions: read-out: %Ctrl PRKCE
T26 construct: purchased Ambit Biosciences (scanEDGE / KINOMEscan) scanEDGE 97 kinase panel; host or cells: T7 phage in E. coli BL21-derived host; remaining kinases in HEK-293 cells

97 kinases [27] = biological target: T27, 97 kinases (Homo sapiens, UniProt Q02763); conditions: read-out: %Ctrl TIE2
T27 construct: purchased Ambit Biosciences (scanEDGE / KINOMEscan) scanEDGE 97 kinase panel; host or cells: T7 phage in E. coli BL21-derived host; remaining kinases in HEK-293 cells

97 kinases [28] = biological target: T28, 97 kinases (Homo sapiens, UniProt Q05397); conditions: read-out: %Ctrl FAK
T28 construct: purchased Ambit Biosciences (scanEDGE / KINOMEscan) scanEDGE 97 kinase panel; host or cells: T7 phage in E. coli BL21-derived host; remaining kinases in HEK-293 cells

97 kinases [29] = biological target: T29, 97 kinases (Homo sapiens, UniProt Q06187); conditions: read-out: %Ctrl BTK
T29 construct: purchased Ambit Biosciences (scanEDGE / KINOMEscan) scanEDGE 97 kinase panel; host or cells: T7 phage in E. coli BL21-derived host; remaining kinases in HEK-293 cells

97 kinases [30] = biological target: T30, 97 kinases (Homo sapiens, UniProt Q13153); conditions: read-out: %Ctrl PAK1
T30 construct: purchased Ambit Biosciences (scanEDGE / KINOMEscan) scanEDGE 97 kinase panel; host or cells: T7 phage in E. coli BL21-derived host; remaining kinases in HEK-293 cells
T30 sequence (Q13153 whole entry): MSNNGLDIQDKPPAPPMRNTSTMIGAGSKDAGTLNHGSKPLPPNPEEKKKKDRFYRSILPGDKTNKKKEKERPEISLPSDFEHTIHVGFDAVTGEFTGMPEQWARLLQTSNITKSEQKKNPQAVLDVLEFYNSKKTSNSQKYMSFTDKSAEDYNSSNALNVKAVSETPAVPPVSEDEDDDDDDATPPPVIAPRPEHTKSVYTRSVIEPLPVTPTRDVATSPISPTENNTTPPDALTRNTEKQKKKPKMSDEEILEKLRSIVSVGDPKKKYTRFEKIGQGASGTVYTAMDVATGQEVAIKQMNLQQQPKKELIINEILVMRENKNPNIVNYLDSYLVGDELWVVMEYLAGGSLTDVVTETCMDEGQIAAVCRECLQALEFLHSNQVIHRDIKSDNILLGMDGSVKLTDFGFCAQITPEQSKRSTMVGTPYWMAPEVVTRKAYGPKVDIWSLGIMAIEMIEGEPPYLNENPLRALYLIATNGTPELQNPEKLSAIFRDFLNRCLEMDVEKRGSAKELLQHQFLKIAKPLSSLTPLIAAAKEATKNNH

97 kinases [31] = biological target: T31, 97 kinases (Homo sapiens, UniProt Q15303); conditions: read-out: %Ctrl ERBB4
T31 construct: purchased Ambit Biosciences (scanEDGE / KINOMEscan) scanEDGE 97 kinase panel; host or cells: T7 phage in E. coli BL21-derived host; remaining kinases in HEK-293 cells

97 kinases [32] = biological target: T32, 97 kinases (Homo sapiens, UniProt Q15759); conditions: read-out: %Ctrl p38-beta
T32 construct: purchased Ambit Biosciences (scanEDGE / KINOMEscan) scanEDGE 97 kinase panel; host or cells: T7 phage in E. coli BL21-derived host; remaining kinases in HEK-293 cells

97 kinases [33] = biological target: T33, 97 kinases (Homo sapiens, UniProt Q16539); conditions: read-out: %Ctrl p38-alpha
T33 construct: purchased Ambit Biosciences (scanEDGE / KINOMEscan) scanEDGE 97 kinase panel; host or cells: T7 phage in E. coli BL21-derived host; remaining kinases in HEK-293 cells

97 kinases [34] = biological target: T34, 97 kinases (Homo sapiens, UniProt Q8IYT8); conditions: read-out: %Ctrl ULK2
T34 construct: purchased Ambit Biosciences (scanEDGE / KINOMEscan) scanEDGE 97 kinase panel; host or cells: T7 phage in E. coli BL21-derived host; remaining kinases in HEK-293 cells

97 kinases [35] = biological target: T35, 97 kinases (Homo sapiens, UniProt Q8NI60); conditions: read-out: %Ctrl ADCK3
T35 construct: purchased Ambit Biosciences (scanEDGE / KINOMEscan) scanEDGE 97 kinase panel; host or cells: T7 phage in E. coli BL21-derived host; remaining kinases in HEK-293 cells

97 kinases [36] = biological target: T36, 97 kinases (Homo sapiens, UniProt Q9H093); conditions: read-out: %Ctrl SNARK
T36 construct: purchased Ambit Biosciences (scanEDGE / KINOMEscan) scanEDGE 97 kinase panel; host or cells: T7 phage in E. coli BL21-derived host; remaining kinases in HEK-293 cells

97 kinases [37] = biological target: T37, 97 kinases (Homo sapiens, UniProt Q9H4B4); conditions: read-out: %Ctrl PLK3
T37 construct: purchased Ambit Biosciences (scanEDGE / KINOMEscan) scanEDGE 97 kinase panel; host or cells: T7 phage in E. coli BL21-derived host; remaining kinases in HEK-293 cells

97 kinases [38] = biological target: T38, 97 kinases (Homo sapiens, UniProt Q9Y6R4); conditions: read-out: %Ctrl MAP3K4
T38 construct: purchased Ambit Biosciences (scanEDGE / KINOMEscan) scanEDGE 97 kinase panel; host or cells: T7 phage in E. coli BL21-derived host; remaining kinases in HEK-293 cells

## CC(C)(C)CNCCn1c(Sc2cc3c(cc2I)OCO3)nc2c(N)ncnc21 [Compound 85]
97 kinases [1]
  remaining binding at 10 µM: 89%
97 kinases [2]
  remaining binding at 10 µM: 100%
97 kinases [3]
  remaining binding at 10 µM: 96%
97 kinases [4]
  remaining binding at 10 µM: 77%
97 kinases [5]
  remaining binding at 10 µM: 100%
97 kinases [6]; read-out: %Ctrl ABL1-nonphosphorylated
  remaining binding at 10 µM: 50%
97 kinases [6]; read-out: %Ctrl ABL1-phosphorylated
  remaining binding at 10 µM: 70%
97 kinases [7]
  remaining binding at 10 µM: 80%
97 kinases [8]
  remaining binding at 10 µM: 95%
97 kinases [9]
  remaining binding at 10 µM: 100%
97 kinases [10]
  remaining binding at 10 µM: 93%
97 kinases [11]
  remaining binding at 10 µM: 63%
97 kinases [12]
  remaining binding at 10 µM: 98%
97 kinases [13]
  remaining binding at 10 µM: 100%
97 kinases [14]
  remaining binding at 10 µM: 99%
97 kinases [15]
  remaining binding at 10 µM: 100%
97 kinases [16]
  remaining binding at 10 µM: 93%
97 kinases [17]
  remaining binding at 10 µM: 76%
97 kinases [18]
  remaining binding at 10 µM: 63%
97 kinases [19]
  remaining binding at 10 µM: 91%
97 kinases [20]
  remaining binding at 10 µM: 88%
97 kinases [21]
  remaining binding at 10 µM: 91%
97 kinases [22]
  remaining binding at 10 µM: 84%
97 kinases [23]
  remaining binding at 10 µM: 100%
97 kinases [24]
  remaining binding at 10 µM: 100%
97 kinases [25]
  remaining binding at 10 µM: 100%
97 kinases [26]
  remaining binding at 10 µM: 100%
97 kinases [27]
  remaining binding at 10 µM: 100%
97 kinases [28]
  remaining binding at 10 µM: 96%
97 kinases [29]
  remaining binding at 10 µM: 100%
97 kinases [30]
  remaining binding at 10 µM: 92%
97 kinases [31]
  remaining binding at 10 µM: 100%
97 kinases [32]
  remaining binding at 10 µM: 89%
97 kinases [33]
  remaining binding at 10 µM: 100%
97 kinases [34]
  remaining binding at 10 µM: 94%
97 kinases [35]
  remaining binding at 10 µM: 92%
97 kinases [36]
  remaining binding at 10 µM: 100%
97 kinases [37]
  remaining binding at 10 µM: 88%
97 kinases [38]
  remaining binding at 10 µM: 49%
